One assay deals with T1, PDE1C (Homo sapiens, UniProt Q14123).
T1 construct: made in house; host or cells: SF9 insect cells (crude lysate used as enzyme source)
Briefly: PDE enzymatic activity assay (SPA), PDE1C, cAMP as substrate. It is filed as biochemical. The settings on record: ratio IC50 PDE1C / IC50 PDE9A; for illustrative purposes. Here is the method:
(§1) The PDE enzymatic activity assays were run as SPA, in general according to the protocol of the manufacturer (Amersham Biosciences, product number: TRKQ 7100). As enzyme source, lysate (PBS with 1% Triton X-100 supplemented with protease inhibitors, cell debris removed by centrifugation at 13.000 rpm for 30 min) of SF 9 cell expressing the human PDE of interest was used. The total protein amount included in the assay varied upon infection and production efficacy of the SF9 cells and lay in the range of […].
(§2) In general, the assay conditions were as follows: • total assay volume: 40 μl • protein amount: 0.1-50 ng • substrate concentration (cGMP or cAMP): 20 nM; ˜1 mCi/l • incubation time: 60 min at room temperature • final DMSO concentration: 1%
(§3) The assays were run in 384-well format. The test reagents as well as the enzyme and the substrate were diluted in assay buffer. The assay buffer contained 50 mM Tris, 8.3 mM MgCl2, 1.7 mM EGTA, 0.1% BSA, 0.05% Tween 20; the pH of assay buffer was adjusted to 7.5. In case activity of PDE1C was analysed, 50 nM Calmodulin and 3 mM CaCl2 were included in the assay buffer. In case PDE9 activity was analyzed, the reaction was stopped by applying a PDE9 specific inhibitor (e.g. compounds according to WO2004/099210). PDE1C was analysed with cAMP as substrate, and PDE9 was analyzed with cGMP as substrate.
(§4) IC50 can be calculated in a conventional way, eventually with the help of GraphPadPrism or other suited software setting the positive control as 100 and the negative control as 0. For calculation of IC50 usually 8 dilutions of the test compound ([…]) are to be selected and tested following the aforementioned protocol.

Another assay concerns the target PDE9A (Homo sapiens, UniProt O76083). Briefly: PDE enzymatic activity assay (SPA), PDE9A. The settings on record: cGMP substrate, for illustrative purposes; for inhibition at 10 µM: 10 micromolar; for IC50: given as ranges. Also on record: made in house; host or cells: SF9 insect cells (crude lysate used as enzyme source). It is filed as biochemical. Here is the method: as §1, §2, §3
Calculation of % Inhibition:
The activity of the positive control (minus the negative control=background) is set to 100% and activity in the presence of test compound is expressed relative to these 100%.
Within this setting, an inhibition above 100% might be possible due to the nature of the variation of the positive control within the assay, however, in this case the reported % inhibition had been adjusted to 100%.
as §4

Here are results for 21 compounds from patent publication US8648085B2, “1, 5-dihydro-pyrazolo (3, 4-D) pyrimidin-4-one derivatives and their use as PDE9A mudulators for the treatment of CNS disorders” (Boehringer Ingelheim International GmbH, priority 2007, dated 2014).

One may read the inhibition as the change of the read-out against control, counted positive when it falls. Broadly, the IC50 is the point on the concentration scale where inhibition reaches its midpoint. A higher IC50 goes with weaker potency in that assay.

A value given as a limit tells only on which side of the number the result lay.

PDE9A, sequence (O76083 whole entry): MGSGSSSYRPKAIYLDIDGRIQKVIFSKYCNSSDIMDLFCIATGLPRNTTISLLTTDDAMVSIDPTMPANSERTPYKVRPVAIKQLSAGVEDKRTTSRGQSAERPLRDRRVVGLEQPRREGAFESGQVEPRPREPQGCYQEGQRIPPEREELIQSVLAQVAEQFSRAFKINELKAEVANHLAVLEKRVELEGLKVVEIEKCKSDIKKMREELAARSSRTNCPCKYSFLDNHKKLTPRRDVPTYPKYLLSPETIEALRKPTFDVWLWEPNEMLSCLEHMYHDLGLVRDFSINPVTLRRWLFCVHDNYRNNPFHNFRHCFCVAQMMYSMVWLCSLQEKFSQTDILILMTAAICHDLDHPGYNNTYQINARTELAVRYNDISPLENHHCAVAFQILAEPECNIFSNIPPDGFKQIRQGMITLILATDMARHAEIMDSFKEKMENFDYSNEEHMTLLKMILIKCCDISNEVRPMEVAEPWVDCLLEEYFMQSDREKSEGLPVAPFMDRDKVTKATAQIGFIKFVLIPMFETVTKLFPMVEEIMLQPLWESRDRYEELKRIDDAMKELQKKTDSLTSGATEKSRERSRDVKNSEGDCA

Turning to `O=c1[nH]c(Cc2ccccc2OC(F)(F)F)nc2c1cnn2-c1cc(Br)ccc1Cl` [Example 6, 1-(5-Bromo-2-chloro-phenyl)-6-(2-trifluoromethoxy-benzyl)-1,5-dihydro-pyrazolo[3,4-d]pyrimidin-4-one], at PDE1C, the “Selectivity = IC50 PDE 1C/IC50 PDE9A (both nanomolar)” value (shortened to “Selectivity = IC50 PDE 1C/IC50 PDE9A”) worked out at 112. Moreover, at PDE9A, the inhibition at 10 µM came to 88% and the IC50 was in the range of 10 to 500 nM.
As to `O=c1[nH]c(Cc2ccccc2OC(F)(F)F)nc2c1cnn2-c1cc(Cl)ccc1Br` [Example 8, 1-(2-Bromo-5-chloro-phenyl)-6-(2-trifluoromethoxy-benzyl)-1,5-dihydro-pyrazolo[3,4-d]pyrimidin-4-one], the “Selectivity = IC50 PDE 1C/IC50 PDE9A” value at PDE1C stood at 21. On PDE9A, the inhibition at 10 µM is 93% and the IC50 is 10 to 500 nM.
As for `O=C(c1cccc(-n2ncc3c(=O)[nH]c(Cc4ccccc4OC(F)(F)F)nc32)c1)N1CCOCC1` [Example 38, 1-[3-(N-morpholino-carbonyl)-phenyl]-6-(2-trifluoromethoxy-benzyl)-1,5-dihydro-pyrazolo[3,4-d]pyrimidin-4-one], on PDE1C, the “Selectivity = IC50 PDE 1C/IC50 PDE9A” value is 9. At PDE9A, the inhibition at 10 µM was 92% and the IC50 was > 500 nM.
As for `CCOc1cc(Cl)c(-n2ncc3c(=O)[nH]c(Cc4ccccc4OC(F)(F)F)nc32)cc1C` [Example 27, 1-(2-Chloro-4-ethoxy-5-methyl-phenyl)-6-(2-trifluoromethoxy-benzyl)-1,5-dihydro-pyrazolo [3,4-d]pyrimidin-4-one], the “Selectivity = IC50 PDE 1C/IC50 PDE9A” value on PDE1C is listed as 14. At PDE9A, the inhibition at 10 µM was 67% and the IC50 is > 500 nM.
For `O=C(c1ccc(Cl)c(-n2ncc3c(=O)[nH]c(Cc4ccccc4OC(F)(F)F)nc32)c1)N1CCOCC1` [Example 37, 1-[2-Chloro-5-(N-morpholino-carbonyl)-phenyl]-6-(2-trifluoromethoxy-benzyl)-1,5-dihydro-pyrazolo[3,4-d]pyrimidin-4-one], in that order: 27, 99% and 10 to 500 nM.
In the case of `O=c1[nH]c(Cc2ccccc2OC(F)(F)F)nc2c1cnn2-c1cccc(Cl)c1Cl` [Example 29, 1-(2,3-Dichloro-phenyl)-6-(2-trifluoromethoxy-benzyl)-1,5-dihydro-pyrazolo[3,4-d]pyrimidin-4-one], the “Selectivity = IC50 PDE 1C/IC50 PDE9A” value on PDE1C was determined as 9. Moreover, on PDE9A, the inhibition at 10 µM amounted to 89% and the IC50 was in the range of 10 to 500 nM.
For the compound `O=c1[nH]c(Cc2ccccc2OC(F)(F)F)nc2c1cnn2-c1cccc(F)c1` [Example 26, 1-(3-Fluoro-phenyl)-6-(2-trifluoromethoxy-benzyl)-1,5-dihydro-pyrazolo[3,4-d]pyrimidin-4-one], the “Selectivity = IC50 PDE 1C/IC50 PDE9A” value on PDE1C is 24. In addition, at PDE9A, the inhibition at 10 µM worked out at 51% and the IC50 is > 500 nM.
Consider `O=c1[nH]c(Cc2ccccc2OC(F)(F)F)nc2c1cnn2-c1c(Cl)cccc1Cl` [Example 25, 1-(2,6-Dichloro-phenyl)-6-(2-trifluoromethoxy-benzyl)-1,5-dihydro-pyrazolo[3,4-d]pyrimidin-4-one], for which the “Selectivity = IC50 PDE 1C/IC50 PDE9A” value on PDE1C turned out to be 24. Also, on PDE9A, the inhibition at 10 µM is 58% and the IC50 was > 500 nM.
`O=c1[nH]c(Cc2ccccc2OC(F)(F)F)nc2c1cnn2-c1cc(Cl)ccc1Cl` [Example 16, 1-(2,5-Dichloro-phenyl)-6-(2-trifluoromethoxy-benzyl)-1,5-dihydro-pyrazolo[3,4-d]pyrimidin-4-one]: the “Selectivity = IC50 PDE 1C/IC50 PDE9A” value at PDE1C is on record as 71. At PDE9A, the inhibition at 10 µM turned out to be 93% and the IC50 lay in the range of 10 to 500 nM.
With `Cc1cc(-n2ncc3c(=O)[nH]c(Cc4ccccc4OC(F)(F)F)nc32)c(Cl)cc1F` [Example 23, 1-(2-Chloro-4-fluoro-5-methyl-phenyl)-6-(2-trifluoromethoxy-benzyl)-1,5-dihydro-pyrazolo[3,4-d]pyrimidin-4-one], the “Selectivity = IC50 PDE 1C/IC50 PDE9A” value at PDE1C was 46. Also, on PDE9A, the inhibition at 10 µM stood at 85% and the IC50 was > 500 nM.
With `COc1ccc(Cl)cc1-n1ncc2c(=O)[nH]c(Cc3ccccc3OC(F)(F)F)nc21` [Example 4, 1-(5-Chloro-2-methoxy-phenyl)-6-(2-trifluoromethoxy-benzyl)-1,5-dihydro-pyrazolo[3,4-d]pyrimidin-4-one], the “Selectivity = IC50 PDE 1C/IC50 PDE9A” value at PDE1C is given as 88. Further, at PDE9A, the inhibition at 10 µM was 102% and the IC50 was in the range of 10 to 500 nM.
The matching figures for `O=c1[nH]c(Cc2ccccc2OC(F)(F)F)nc2c1cnn2-c1ccc(F)cc1O` [Example 31, 1-(2-Hydroxy,4-fluoro-phenyl)-6-(2-trifluoromethoxy-benzyl)-1,5-dihydro-pyrazolo[3,4-d]pyrimidin-4-one]: 8, 82% and > 500 nM.
For the compound `O=c1[nH]c(Cc2ccccc2OC(F)(F)F)nc2c1cnn2-c1ccc(F)cc1Br` [Example 9, 1-(2-Bromo-4-fluoro-phenyl)-6-(2-trifluoromethoxy-benzyl)-1,5-dihydro-pyrazolo[3,4-d]pyrimidin-4-one], the “Selectivity = IC50 PDE 1C/IC50 PDE9A” value at PDE1C is recorded as 6. Further, at PDE9A, the inhibition at 10 µM was 90% and the IC50 was 10 to 500 nM.
Consider `O=C(c1ccc(Cl)c(-n2ncc3c(=O)[nH]c(Cc4ccccc4OC(F)(F)F)nc32)c1)N1CCCCC1` [Example 35, 1-[2-Chloro-5-(piperidine-1-carbonyl)-phenyl]-6-(2-trifluoromethoxy-benzyl)-1,5-dihydro-pyrazolo[3,4-d]pyrimidin-4-one], for which the “Selectivity = IC50 PDE 1C/IC50 PDE9A” value on PDE1C amounted to 10. Further, at PDE9A, the inhibition at 10 µM came to 93% and the IC50 was 10 to 500 nM.
For the compound `Cc1cc(F)ccc1-n1ncc2c(=O)[nH]c(Cc3ccccc3OC(F)(F)F)nc21` [Example 17, 1-(4-Fluoro-2-methyl-phenyl)-6-(2-trifluoromethoxy-benzyl)-1,5-dihydro-pyrazolo[3,4-d]pyrimidin-4-one], on PDE1C, the “Selectivity = IC50 PDE 1C/IC50 PDE9A” value is reported as 9. At PDE9A, the inhibition at 10 µM turned out to be 98% and the IC50 is 10 to 500 nM.
Consider `O=c1[nH]c(Cc2ccccc2OC(F)(F)F)nc2c1cnn2-c1ncc(F)cc1F` [Example 39, 6-(2-Trifluoromethoxy-benzyl)-1-(3,5-difluoro-pyridin-2-yl)-1,5-dihydro-pyrazolo[3,4-d]pyrimidin-4-one], for which, on PDE1C, the “Selectivity = IC50 PDE 1C/IC50 PDE9A” value is listed as 4. Further, at PDE9A, the inhibition at 10 µM was determined as 97% and the IC50 fell in the range of 10 to 500 nM.
The matching figures for `Cc1ccc(F)cc1-n1ncc2c(=O)[nH]c(Cc3ccccc3OC(F)(F)F)nc21` [Example 14, 1-(5-Fluoro-2-methyl-phenyl)-6-(2-trifluoromethoxy-benzyl)-1,5-dihydro-pyrazolo[3,4-d]pyrimidin-4-one]: 14, 95% and 10 to 500 nM.
Take `COc1c(F)cccc1-n1ncc2c(=O)[nH]c(Cc3ccccc3OC(F)(F)F)nc21` [Example 30, 1-(2-Methoxy,3-fluoro-phenyl)-6-(2-trifluoromethoxy-benzyl)-1,5-dihydro-pyrazolo[3,4-d]pyrimidin-4-one]: the “Selectivity = IC50 PDE 1C/IC50 PDE9A” value at PDE1C is 8. Besides, at PDE9A, the inhibition at 10 µM stood at 95% and the IC50 is 10 to 500 nM.
Regarding `Cc1ccc(Br)c(-n2ncc3c(=O)[nH]c(Cc4ccccc4OC(F)(F)F)nc32)c1` [Example 10, 1-(2-Bromo-5-methyl-phenyl)-6-(2-trifluoromethoxy-benzyl)-1,5-dihydro-pyrazolo[3,4-d]pyrimidin-4-one], the “Selectivity = IC50 PDE 1C/IC50 PDE9A” value on PDE1C turned out to be 7. Also, at PDE9A, the inhibition at 10 µM worked out at 88% and the IC50 was > 500 nM.
As for `Cc1cccc(Cl)c1-n1ncc2c(=O)[nH]c(Cc3ccccc3OC(F)(F)F)nc21` [Example 24, 1-(2-Chloro-6-methyl-phenyl)-6-(2-trifluoromethoxy-benzyl)-1,5-dihydro-pyrazolo[3,4-d]pyrimidin-4-one], the “Selectivity = IC50 PDE 1C/IC50 PDE9A” value at PDE1C is 49. Moreover, at PDE9A, the inhibition at 10 µM was found to be 87% and the IC50 is > 500 nM.
In the case of `Cc1cc(F)c(F)cc1-n1ncc2c(=O)[nH]c(Cc3ccccc3OC(F)(F)F)nc21` [Example 21, 1-(4,5-Difluoro-2-methyl-phenyl)-6-(2-trifluoromethoxy-benzyl)-1,5-dihydro-pyrazolo[3,4-d]pyrimidin-4-one], the “Selectivity = IC50 PDE 1C/IC50 PDE9A” value at PDE1C is 93. Further, at PDE9A, the inhibition at 10 µM was found to be 91% and the IC50 was in the range of 10 to 500 nM.
